Reference: US10513533B2, “Tunicamycin related compounds with anti-bacterial activity” (priority 2017, dated 2019)
Entries after “also recorded” stand apart in the source; their conditions may differ.

Tests used:
B. subtilis strain MW10 = assay: beta-lactam enhancement, broth dilution MIC with resazurin; settings: for MIC of the beta-lactam without any tunicamycins or tunicamycin related compounds added: beta-lactam alone
Saccharomyces cerevisiae = assay: agar diffusion-zone of inhibition assay; assay type: cell-based; settings: for Zone of Clearing (cm) Yeast: Example 1, 0.5 μg spotted
Bacillus subtilis = assay: agar diffusion-zone of inhibition assay; assay type: cell-based; settings: for Zone of Clearing (cm) B. subtilis: Example 1, 0.5 μg spotted
[1] = tested on: cell wall teichoic acid (WTA) pathway; settings: background, literature; cited from earlier work
[2] = tested on: Chinese hamster ovary (CHO) cells; assay: cytotoxicity against mammalian cell line in culture; assay type: cell-based; settings: FIG. 8A, 0.5 μg, 1.0 μg, 2.0 μg
Source text: Chinese hamster ovary (CHO) cells are chosen for this experiment because they have been used previously as a model for tunicamycin toxicity. See, e.g., Scocca and Krag, J. Biol. Chem., 265:20621-20626 (1990). A human cell line (MDA-MB-231 triple negative human breast cancer cells) are also used because their known susceptibility to tunicamycin. See, Banerjee, et al., Cancer Res. 71:2095 (2011). The protocols used are described in Duksin & Bornstein, Proc. Natl. Acad. Sci. (U.S.A.), 74:3433-3437 (1977).

[3] = tested on: AtchitIV5 N-glycosylation; assay: Pichia-based protein N-glycosylation assay (SDS-PAGE); assay type: cell-based; settings: Example 2, 20 μg/mL, added at methanol induction

Molecule | Zone of Clearing (cm) Yeast (Saccharomyces cerevisiae) [cm] | Zone of Clearing (cm) B. subtilis (Bacillus subtilis) [cm] | toxicity / antimicrobial activity on S. cerevisiae (in words) (Saccharomyces cerevisiae) | antimicrobial activity on Bacillus (in words) (Bacillus subtilis) | further results
Cc1onc(-c2ccccc2)c1C(=O)N[C@@H]1C(=O)N2[C@@H]1SC(C)(C)[C@@H]2C(=O)O [oxacillin] | – | – | – | – | MIC (B. subtilis strain MW10; Bacillus subtilis, MW10, read-out: MIC of oxacillin only): 0.125 µg/mL; MIC of the beta-lactam without any tunicamycins or tunicamycin related compounds added (B. subtilis strain MW10): 0.25 µg/mL
[N-]=[N+]=NC1C(O)[C@H](O)C(CO)O[C@@H]1OC1O[C@H](C[C@@H](O)C2O[C@@H](n3ccc(=O)[nH]c3=O)[C@H](O)[C@@H]2O)C(O)C(O)[C@H]1N1C(=O)c2ccccc2C1=O (some centres unmarked) [Compound 5] | 0 | 0 | – | – | –
C[C@H]1[C@@H](c2cc(C(F)(F)F)cc(C(F)(F)F)c2)OC(=O)N1C(=O)CCc1cncc2ccccc12 [tarocin A1] | – | – | – | – | depletion of the cell wall teichoic acid polymer (in words) [1]: complete depletion
CC(=O)NC1C(O)[C@H](O)C(CO)O[C@@H]1OC1O[C@H](C[C@@H](O)C2O[C@@H](n3ccc(=O)[nH]c3=O)[C@H](O)[C@@H]2O)C(O)C(O)[C@H]1N (some centres unmarked) [Compound 1] | 0 | 0 | – | – | –
quinovosamycin | – | – | – | – | toxicity to CHO cells (in words) [2]: toxic
CC(=O)NC1C(O)[C@H](O)[C@H](CO)O[C@@H]1O[C@@H]1O[C@H](C[C@@H](O)C2O[C@@H](n3ccc(=O)[nH]c3=O)[C@H](O)[C@@H]2O)C(O)C(O)[C@H]1NC(=O)/C=C/CCCCCCCCCC(C)C (some centres unmarked) [Compound 2] | 2.4 | 2.5 | same antimicrobial activity as the native tunicamycin | same antimicrobial activity as the native tunicamycin | inhibition of AtchitIV5 N-glycosylation (in words) [3]: same effect as the naturally occurring tunicamycins
CC(C)CCCCCCCCC/C=C/C(=O)N[C@@H]1C(O)C(O)[C@@H](C[C@@H](O)C2O[C@@H](n3ccc(=O)[nH]c3=O)[C@H](O)[C@@H]2O)O[C@H]1O[C@H]1O[C@@H](CO)[C@@H](O)C(O)C1N=[N+]=[N-] (some centres unmarked) [Compound 4] | 0 | 1.6 | essentially non-toxic; also recorded: reduced toxicity | almost equivalent to the native tunicamycin | –
CC(=O)NC1C(O)[C@H](O)C(CO)O[C@@H]1OC1O[C@H](C[C@@H](O)C2O[C@@H](n3ccc(=O)[nH]c3=O)[C@H](O)[C@@H]2O)C(O)C(O)[C@H]1NC(C)=O (some centres unmarked) [Compound 9] | 0 | 0 | – | – | –
COc1ccc(O[C@@H]2OC([C@H](O)C[C@H]3O[C@@H](O[C@H]4O[C@@H](CO)[C@@H](O)C(O)C4NC(C)=O)[C@H](NC(=O)/C=C/CCCCCCCCCC(C)C)C(O)C3O)[C@@H](O)[C@H]2O)cc1 (some centres unmarked) [Compound 7] | 0 | 0 | no antimicrobial biological activity | no antimicrobial biological activity | –
CC1(C)S[C@@H]2[C@H](NC(=O)Cc3ccccc3)C(=O)N2[C@H]1C(=O)O [penicillin G] | – | – | – | – | MIC of the beta-lactam without any tunicamycins or tunicamycin related compounds added (B. subtilis strain MW10): 0.025 µg/mL
COc1cccc(OC)c1C(=O)N[C@@H]1C(=O)N2[C@@H]1SC(C)(C)[C@@H]2C(=O)O [methicillin] | – | – | – | – | MIC of the beta-lactam without any tunicamycins or tunicamycin related compounds added (B. subtilis strain MW10): 0.125 µg/mL
CC(=O)NC1C(O)[C@H](O)[C@H](CO)O[C@@H]1O[C@@H]1O[C@H](C[C@@H](O)C2O[C@@H](n3cnc4c(N)ncnc43)[C@H](O)[C@@H]2O)C(O)C(O)[C@H]1NC(=O)/C=C/CCCCCCCCCC(C)C (some centres unmarked) [Compound 10] | 0 | 0 | no antimicrobial biological activity | no antimicrobial biological activity | –
CC(=O)NC1C(O)[C@H](O)[C@H](CO)O[C@@H]1O[C@@H]1O[C@H](C[C@@H](O)C2O[C@@H](n3ccc(=O)[nH]c3=O)[C@H](O)[C@@H]2O)C(O)C(O)[C@H]1NC(=O)CCCCCCCCCCCC(C)C (some centres unmarked) [Compound 3] | 0.2 | 2.3 | considerably less toxic; also recorded: reduced toxicity | comparable response | inhibition of AtchitIV5 N-glycosylation (in words) [3]: less effective inhibitor
COc1ccc(O[C@@H]2OC([C@H](O)C[C@H]3OC(O[C@H]4OC(CO)[C@@H](O)C(O)C4NC(C)=O)[C@H](N)C(O)C3O)[C@@H](O)[C@H]2O)cc1 (some centres unmarked) [Compound 6] | 0 | 0 | no antimicrobial biological activity | no antimicrobial biological activity | –
